Measured values taken from patent US6011000A, “Compositions for the treatment of blood disorders” (priority 1995, dated 2000).

Test system: HSS-II region of the locus control region (LCR)
Test: In vivo footprinting of HSS-II
Set-up: species or system human
Procedure: Erythroid cell-rich fractions were prepared from patients' peripheral blood or bone marrow before and during treatment, and were in vivo methylated using DMS. Ligation-mediated polymerase chain reaction (LM-PCR) was performed (J. L. Mueller et al., Sci. 246:780-86, 1989). Briefly, 3-7 μg of DNA was suspended in 15 μl of solution A (40 mM Tris-HCl, pH 7.7, 50 mM NaCl) containing […] of primer. First-strand synthesis was performed by adding 7.5 μl of solution B (20 mM MgCl2, 20 mM DTT, 60 μM dNTP) and 1.5 μl of 1:4 diluted Sequenase version 2.0 (United States Biochemical; Cleveland, Ohio) with TE and incubating at 50° C. for 10 minutes. The reaction was quenched by heating at 68° C. for 10 minutes, adding 6 μl of 310 mM Tris-HCl, pH 7.7, and subsequently extracting with phenol/chloroform/isoamyl alcohol (25:24:1) and with ether. […] All of the footprints were analyzed two or more times to ensure reproducibility.
Several lines of evidence obtained from DNA transfection and transgenic experiments have corroborated the functional importance of HSS-II of the LCR in regulating β-like globin gene expression. […] In view of these observations, the patterns of in vivo footprints of HSS-II in erythroid cell preparations that were obtained from pre-treatment and post-treatment blood samples were analyzed. […]

CCCC(=O)O [AB, arginine butyrate]
footprints over HSS-II (erythroblasts of treated sickle cell patient (FIG. 15)): novel in vivo footprints that were not seen in a pre-treatment sample became apparent | region of new protection upstream of the GATA-1 binding sequence (treated patients (FIG. 15)): about 40 bp
